Assay results published in DBAASP.
≈ marks a conversion by molar mass, not a printed value. Where “and” joins values, the source holds several entries; their conditions need not be identical. Equal entries are not always repeated. Blank lines part the entries; values can stand above or below the compound they belong to.

Legend:
Assay in all cases: ≥ marks a high value that may be exact or a test limit, other limits are often not marked, values filed in µg/mL are converted to µM
[1] = tested on: Acinetobacter baumannii ATCC 19606
[2] = tested on: Enterococcus faecalis ATCC 29212
[3] = tested on: Staphylococcus aureus ATCC 25923
[4] = tested on: Pseudomonas aeruginosa ATCC 27853
[5] = tested on: Escherichia coli ATCC 25922
[6] = tested on: Pseudomonas aeruginosa ATCC 9027
[7] = tested on: Staphylococcus aureus ATCC 6538
[8] = tested on: Staphylococcus aureus NCTC 8325
[9] = tested on: Staphylococcus aureus NCTC 10788
[10] = tested on: Salmonella enterica subsp. enterica serovar Typhimurium C77-31
[11] = tested on: Staphylococcus aureus ATCC 29213
[12] = tested on: Staphylococcus epidermidis ATCC 12228
Escherichia coli UB1005 = tested on: Escherichia coli UB1005
[13] = tested on: Candida albicans ATCC 10231

SMILES: CSCC[C@H](NC(=O)[C@H](CCCCN)NC(=O)[C@H](CC(C)C)NC(=O)[C@H](CC(C)C)NC(=O)[C@H](Cc1cnc[nH]1)NC(=O)[C@@H]1CCCN1C(=O)[C@H](CC(C)C)NC(=O)[C@H](CC(C)C)NC(=O)[C@H](Cc1c[nH]c2ccccc12)NC(=O)[C@H](CC(C)C)NC(=O)[C@H](CCCCN)NC(=O)[C@H](CCC(=O)O)NC(=O)CNC(=O)[C@H](C)NC(=O)[C@@H](NC(=O)[C@H](C)N)C(C)C)C(=O)N[C@@H](CC(C)C)C(=O)N[C@@H](CC(C)C)C(=O)N[C@H](C(=O)N1CCC[C@H]1C(=O)N[C@H](C(=O)N1CCC[C@H]1C(N)=O)[C@@H](C)O)[C@@H](C)O [AVAGEKLWLLPHLLKMLLTPTP]
MIC [1]: > 164 µM
MIC [2]: 164 µM (≈ 400 µg/mL)
MIC [3]: 164 µM (≈ 400 µg/mL)
MIC [4]: > 164 µM
MIC [5]: > 164 µM

SMILES: CC(C)C[C@H](NC(=O)[C@H](C)NC(=O)[C@H](CCCCN)NC(=O)[C@H](CCCCN)NC(=O)[C@H](Cc1ccccc1)NC(=O)[C@H](C)NC(=O)[C@H](CCCCN)NC(=O)[C@H](C)NC(=O)[C@H](Cc1ccccc1)NC(=O)[C@H](CC(C)C)NC(=O)[C@H](CCCCN)NC(=O)[C@H](C)NC(=O)[C@@H](N)Cc1ccccc1)C(N)=O [FAKLFAKAFKKAL]
MIC [6]: 135 µM (≈ 200 µg/mL)
MIC [7]: 67.4 µM (≈ 99.9 µg/mL)

SMILES: CC(C)C[C@H](NC(=O)[C@H](Cc1ccccc1)NC(=O)[C@H](CCCCN)NC(=O)[C@H](CCCCN)NC(=O)[C@H](CC(C)C)NC(=O)[C@H](C)NC(=O)[C@H](CCCCN)NC(=O)[C@H](C)NC(=O)[C@H](CC(C)C)NC(=O)[C@H](CC(C)C)NC(=O)[C@H](CCCCN)NC(=O)[C@H](C)NC(=O)[C@@H](N)Cc1ccccc1)C(N)=O [FAKLLAKALKKFL]
MIC [6]: 67.1 µM (≈ 99.9 µg/mL)
MIC [7]: 6.71 µM (≈ 9.99 µg/mL)

SMILES: CC(C)C[C@H](NC(=O)[C@H](CCCCN)NC(=O)[C@H](CCCCN)NC(=O)[C@H](CC(C)C)NC(=O)[C@H](C)NC(=O)[C@H](CCCCN)NC(=O)[C@H](C)NC(=O)[C@H](CC(C)C)NC(=O)[C@H](CC(C)C)NC(=O)[C@H](CCCCN)NC(=O)[C@H](C)NC(=O)[C@@H](N)Cc1ccccc1)C(N)=O [FAKLLAKALKKL]
MIC [6]: 18.6 µM (≈ 25 µg/mL)
MIC [7]: 7.44 µM (≈ 9.99 µg/mL)

SMILES: CC(C)C[C@H](NC(=O)[C@H](C)NC(=O)[C@H](CCCCN)NC(=O)[C@H](CCCCN)NC(=O)[C@H](CC(C)C)NC(=O)[C@H](Cc1ccccc1)NC(=O)[C@H](CCCCN)NC(=O)[C@H](C)NC(=O)[C@H](CC(C)C)NC(=O)[C@H](CC(C)C)NC(=O)[C@H](CCCCN)NC(=O)[C@H](C)NC(=O)[C@@H](N)Cc1ccccc1)C(N)=O [FAKLLAKFLKKAL]
MIC [6]: 134 µM (≈ 200 µg/mL)
MIC [7]: 6.71 µM (≈ 9.99 µg/mL)

SMILES: CC[C@H](C)[C@H](NC(=O)[C@H](CC(C)C)NC(=O)[C@H](CO)NC(=O)[C@@H](NC(=O)[C@H](CC(C)C)NC(=O)[C@H](CO)NC(=O)[C@@H]1CCCN1C(=O)[C@H](CC(C)C)NC(=O)CNC(=O)[C@H](CCCCN)NC(=O)[C@H](C)NC(=O)[C@H](CC(C)C)NC(=O)[C@H](C)NC(=O)CNC(=O)[C@@H](NC(=O)[C@@H](NC(=O)[C@H](CO)NC(=O)CNC(=O)[C@H](Cc1ccccc1)NC(=O)[C@@H](N)Cc1ccccc1)[C@@H](C)CC)[C@@H](C)CC)[C@@H](C)CC)C(=O)N[C@@H](CCCCN)C(=O)N[C@@H](CCCCN)C(N)=O [FFGSIIGALAKGLPSLISLIKK]
MIC [8]: 12.5 µM (≈ 28.4 µg/mL)
MIC [5]: 6 µM (≈ 13.6 µg/mL)

SMILES: CC[C@H](C)[C@H](NC(=O)[C@H](CCSC)NC(=O)[C@H](CO)NC(=O)CNC(=O)[C@H](Cc1ccccc1)NC(=O)[C@@H](N)Cc1ccccc1)C(=O)NCC(=O)N[C@@H](C)C(=O)N[C@@H](CC(C)C)C(=O)N[C@@H](C)C(=O)N[C@@H](CCCCN)C(=O)NCC(=O)N[C@@H](CC(C)C)C(=O)N1CCC[C@H]1C(=O)N[C@@H](CO)C(=O)N[C@@H](CC(C)C)C(=O)N[C@H](C(=O)N[C@@H](CO)C(=O)N[C@@H](CC(C)C)C(=O)N[C@H](C(=O)N[C@@H](CCCCN)C(=O)N[C@@H](CCCCN)C(N)=O)[C@@H](C)CC)[C@@H](C)CC [FFGSMIGALAKGLPSLISLIKK]
MIC [8]: 12.5 µM (≈ 28.6 µg/mL)
MIC [5]: 12.5 µM (≈ 28.6 µg/mL)

SMILES: CC(C)C[C@H](NC(=O)[C@H](CC(C)C)NC(=O)[C@H](CO)NC(=O)CNC(=O)[C@H](CC(C)C)NC(=O)[C@H](CC(C)C)NC(=O)CNC(=O)[C@H](CC(C)C)NC(=O)[C@@H](N)Cc1ccccc1)C(N)=O [FLGLLGSLL]
MIC [9]: ≥ 34 µM

SMILES: CC(C)C[C@H](NC(=O)[C@H](CC(C)C)NC(=O)[C@H](CCCCN)NC(=O)[C@H](CCCCN)NC(=O)[C@H](CC(C)C)NC(=O)[C@H](CO)NC(=O)[C@H](CCCCN)NC(=O)[C@H](CC(C)C)NC(=O)[C@@H](N)Cc1ccccc1)C(N)=O [FLKSLKKLL]
MIC [1]: > 117 µM
MIC [3]: 117 µM (≈ 128 µg/mL)
MIC [4]: 7.34 µM (≈ 7.99 µg/mL)
MIC [5]: 58.7 µM (≈ 63.9 µg/mL)

The remaining lines, values ahead:

MIC [8]: 2 µM (≈ 5.29 µg/mL)
SMILES: CC[C@H](C)[C@@H]1NC(=O)[C@H](C)NC(=O)[C@@H](NC(=O)[C@H](Cc2ccccc2)NC(=O)[C@@H](NC(=O)[C@H](CCCCN)NC(=O)[C@@H]2CCCN2C(=O)[C@H](CC(C)C)NC(=O)[C@H](Cc2ccccc2)NC(=O)[C@H](CCCCN)NC(=O)[C@H](C)NC(=O)[C@H](C)NC(=O)[C@H](CCSC)NC(=O)CNC(=O)[C@H](C)NC(=O)[C@@H](NC(=O)[C@H](Cc2ccccc2)NC(=O)[C@@H]2CCCN2C(=O)[C@H](CC(C)C)NC(=O)[C@@H](N)Cc2ccccc2)[C@@H](C)CC)[C@@H](C)CC)CSSC[C@@H](C(=O)O)NC(=O)[C@H](CCCCN)NC(=O)[C@H](CCCCN)NC(=O)[C@H](CO)NC1=O [FLPFIAGMAAKFLPKIFCAISKKC]

MIC [8]: ≥ 160 µM
MIC [5]: > 80 µM
SMILES: CC[C@H](C)[C@H](NC(=O)[C@H](C)NC(=O)[C@H](CCC(=O)O)NC(=O)[C@H](Cc1cnc[nH]1)NC(=O)[C@H](Cc1ccccc1)NC(=O)CNC(=O)[C@H](CCC(N)=O)NC(=O)[C@H](Cc1ccccc1)NC(=O)[C@@H](NC(=O)[C@H](CCCCN)NC(=O)[C@H](CCCCN)NC(=O)[C@H](CC(C)C)NC(=O)[C@H](C)NC(=O)[C@H](CC(N)=O)NC(=O)[C@H](CC(C)C)NC(=O)CN)C(C)C)C(=O)N[C@@H](CCCCN)C(=O)N[C@@H](CC(C)C)C(=O)N[C@H](C(=O)N[C@@H](CC(N)=O)C(=O)N[C@@H](CC(N)=O)C(=O)N[C@@H](Cc1cnc[nH]1)C(=O)N[C@H](C(=O)N[C@@H](CCC(N)=O)C(=O)O)C(C)C)[C@@H](C)CC [GLNALKKVFQGFHEAIKLINNHVQ]

MIC [10]: 1 µM (≈ 3.06 µg/mL)
MIC [11]: 2 µM (≈ 6.13 µg/mL)
MIC [3]: 4 µM (≈ 12.3 µg/mL)
MIC [12]: 2 µM (≈ 6.13 µg/mL)
MIC (Escherichia coli UB1005): 2 µM (≈ 6.13 µg/mL)
MIC [5]: 1 µM and 2 µM
SMILES: CC[C@H](C)[C@H](NC(=O)[C@H](Cc1c[nH]c2ccccc12)NC(=O)[C@H](CCCCN)NC(=O)[C@H](CC(C)C)NC(=O)[C@@H](NC(=O)[C@H](CCCCN)NC(=O)CNC(=O)[C@@H](NC(=O)[C@H](CCCCN)NC(=O)[C@H](CCCCN)NC(=O)[C@H](CC(C)C)NC(=O)[C@H](CCCN=C(N)N)NC(=O)[C@H](CCCCN)NC(=O)[C@H](CCCN=C(N)N)NC(=O)[C@@H](NC(=O)[C@H](CCCCN)NC(=O)[C@H](CCCCN)NC(=O)[C@H](CCCN=C(N)N)NC(=O)[C@H](CC(C)C)NC(=O)[C@H](CCCN=C(N)N)NC(=O)[C@H](CCCN=C(N)N)NC(=O)[C@H](Cc1ccccc1)NC(=O)[C@H](CCCN=C(N)N)NC(=O)CN)[C@@H](C)O)[C@@H](C)CC)C(C)C)C(N)=O [GRFRRLRKKTRKRLKKIGKVLKWI]

MIC [10]: ≥ 64 µM
MIC [11]: 64 µM (≈ 110 µg/mL)
MIC [3]: > 128 µM
MIC [12]: 64 µM (≈ 110 µg/mL)
MIC (Escherichia coli UB1005): ≥ 32 µM
MIC [5]: 16 µM (≈ 27.6 µg/mL)
SMILES: CC(C)C[C@H](NC(=O)[C@H](CCCN=C(N)N)NC(=O)[C@H](CCCCN)NC(=O)[C@H](Cc1c[nH]c2ccccc12)NC(=O)[C@@H](NC(=O)[C@H](CCCCN)NC(=O)[C@H](CCCCN)NC(=O)[C@H](CCCN=C(N)N)NC(=O)[C@H](CC(C)C)NC(=O)[C@H](CCCN=C(N)N)NC(=O)[C@@H](N)CCCN=C(N)N)[C@@H](C)O)C(=O)N[C@@H](Cc1c[nH]c2ccccc12)C(N)=O [RRLRKKTWKRLW]

MIC [11]: 2.28 µM (≈ 4.9 µg/mL)
MIC [13]: 67.3 µM (≈ 144 µg/mL)
MIC [4]: 5.27 µM (≈ 11.3 µg/mL)
SMILES: CC[C@H](C)[C@H](NC(=O)[C@H](CC(C)C)NC(=O)[C@H](CC(C)C)NC(=O)[C@@H]1CCCN1C(=O)[C@H](CCCCN)NC(=O)[C@H](CC(C)C)NC(=O)[C@H](CCCCN)NC(=O)[C@@H]1CCCN1C(=O)[C@H](CC(C)C)NC(=O)[C@H](CC(C)C)NC(=O)[C@H](CC(C)C)NC(=O)[C@H](CCCCN)NC(=O)[C@H](CC(C)C)NC(=O)[C@H](CC(C)C)NC(=O)[C@H](CCCCN)NC(=O)[C@@H](N)Cc1ccc(O)cc1)C(=O)N[C@@H](CCCCN)C(=O)N[C@@H](CC(C)C)C(N)=O [YKLLKLLLPKLKPLLIKL]
